The text below walks through data of patent US20250361277A1, “PROTEASE-RESPONSIVE SURFACE-POTENTIAL-TUNABLE PEPTIDE CONSTRUCTS FOR SELECTIVE IMAGING AND ACCURATE INHIBITOR SCREENING” (The Regents of the University of California, priority 2024, published 2025).

Data set [1] addresses T1, TMPRSS2 (Homo sapiens, UniProt O15393). In words: Impact of protease inhibitors on EGTP fluorescence with TMPRSS2 in buffer. The data set is classed as biochemical. Also noted: expressed in transfected cells; host or cells: TMPRSS2-Vero cells.
Data set [2] concerns the target T1, TMPRSS2. In words: TMPRSS2 inhibitor screening with EGTP in TMPRSS2-Vero cells (CLSM). The settings on record: for effect of inhibitor on fluorescence intensity of EGTP: 100 nM inhibitor 1 h, 10 μM EGTP 1 h. Set-up: effect of inhibitor on yellow fluorescence of EGTP: dose or concentration left out as unconfirmed.
Protocol: To further screen TMPRSS2 inhibitors with EGTP, Vero cells and TMPRSS2-Vero cells as robust cell models were chosen for cell imaging (FIG. 4a). Vero cells and TMPRSS2-Vero cells were incubated with different concentrations (1 mM, 5 mM, 10 mM, and 20 mM) of PyTPE and EGTP (Figures S23, S24, S25, and S26).
Incubation living cells with probes. For confocal laser scanning microscopy imaging, A549 cells, HeLa cells, MCF-7-GFP cells, Vero cells, and TMPRSS2-Vero cells were seeded into cell culture dishes at a density of 2.0×10^5 in growth medium (DMEM supplemented with 10% FBS, 200 mL). After overnight incubation, the cells were washed with phosphate-buffered saline (PBS, pH 7.4) three times. A solution of the indicated probe in PBS was then added, and the cells were incubated in a 5% CO2 atmosphere at 37° C. for further use. […] The supernatant was then discarded, and the cells were washed gently twice with PBS and fixed with 2% paraformaldehyde (PFA) at room temperature for 20 min prior to optical imaging.
Confocal laser scanning microscopy. […] A 405 nm laser was chosen for the excitation of AIEgens and the emission was collected at 550-620 nm. A 488 nm laser was chosen for the excitation of GFP (or MTG), the emission was collected at 500-530 nm. […] All fluorescence images were analyzed with an IMAGE™ software (Zeiss).
For data set [3], the system named is A549 cells, HeLa cells, and MCF-7-GFP cells. How it is done: (§1) The TMPRSS2 selective imaging capability of EGTP was tested via the three different cell lines.
Cytotoxicity assay. […] The fluorescence of Resazurin solution at 690 nm using an excitation wavelength of 560 nm was recorded by a SYNERGY H1™ microplate reader (BioTek) with standard operation procedures.

For data set [4], the system named is SARS-CoV-2 infected TMPRSS2-Vero cells. In words: SARS-CoV-2 infected TMPRSS2-Vero cells with PSGMR and Mpro inhibitor GC376 (CLSM). The data set is classed as cell-based, SARS-CoV-2 (USA-WA1/2020).
The test system is the same in data set [5]. The format is cell-based, SARS-CoV-2 (USA-WA1/2020).
Data set [6] deals with Recombinant SARS-CoV-2 Mpro (Severe acute respiratory syndrome coronavirus 2, UniProt P0DTD1).
The target in the next data set is Recombinant Mpro (Severe acute respiratory syndrome coronavirus 2, UniProt P0DTD1).
Data set [7] has as its target T1, TMPRSS2. In words: Cleavage of probes by recombinant TMPRSS2 (HPLC and ESI-MS). The format is biochemical. Conditions: incubation for 1 h at 37° C. in 20 mM Tris-HCl buffer (pH 8.0).
The test system of the next data set is A549 cells. Nature of the data set: CLSM imaging of A549 cells (TMPRSS2 low expression). The data set is classed as cell-based. Conditions: 10 μM probe, 1 h. How it is done: (§2) TMPRSS2 selective imaging in cancer cells with EGTP.
(§3) Incubation living cells with probes.
(§4) Confocal laser scanning microscopy.

The next data set has as its system HeLa cells. The format is cell-based. How it is done: as §1
The test system of another data set is MCF-7-GFP cells. Nature of the data set: CLSM imaging of MCF-7-GFP cells (TMPRSS2 high expression). The data set is classed as cell-based. The settings on record: 10 μM probe, 1 h. How it is done: as §2, §3, §4
In data set [8] the target is T1, TMPRSS2. In words: Enzymatic fluorescence assay of probes with TMPRSS2. The data set is classed as biochemical. Set-up: expressed in transfected cells; host or cells: TMPRSS2-Vero cells. Conditions: Tris-HCl buffer with 1% DMSO, excitation 405 nm. How it is done:
Recombinant TMPRSS2 was added into the working solution and then diluted to a total of 100 μl with the same Tris-HCl buffer. The reaction mixture was incubated at 37° C. for 1 h for UV-Vis absorption and fluorescence measurement. The solution was excited at 405 nm, and the emission was collected from 430 nm to 800 nm.

The subject of the next data set is TMPRSS2-Vero cells. The data set is classed as cell-based.
The subject of the next data set is Vero cells. In words: CLSM imaging of Vero cells. The settings on record: 1, 5, 10, 20 mM as printed, 1 h.
Where [9] appears, read: 10 μM PSGMR, increasing GC376 (2-12 μM).

Structures can show the parent of a compound that is named as a salt. Where two headings read alike, the source gives them in different places. No end group written: not given here.

T1 sequence (O15393 whole entry): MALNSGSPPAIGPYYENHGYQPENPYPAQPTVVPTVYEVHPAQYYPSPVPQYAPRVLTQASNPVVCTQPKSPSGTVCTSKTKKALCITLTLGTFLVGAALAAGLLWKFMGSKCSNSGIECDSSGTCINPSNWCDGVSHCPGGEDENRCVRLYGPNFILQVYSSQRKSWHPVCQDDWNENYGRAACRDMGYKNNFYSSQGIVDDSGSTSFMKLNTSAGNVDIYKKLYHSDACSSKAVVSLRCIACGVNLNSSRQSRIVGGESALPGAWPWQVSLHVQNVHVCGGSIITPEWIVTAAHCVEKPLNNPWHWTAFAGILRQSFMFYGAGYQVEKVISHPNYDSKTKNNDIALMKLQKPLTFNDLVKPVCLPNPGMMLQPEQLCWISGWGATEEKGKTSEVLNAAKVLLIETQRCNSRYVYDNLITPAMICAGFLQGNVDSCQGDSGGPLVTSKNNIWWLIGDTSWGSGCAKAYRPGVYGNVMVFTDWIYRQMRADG

`CN(C)C(=O)COC(=O)Cc1ccc(OC(=O)c2ccc(NC(=N)N)cc2)cc1` [Camostat, camostat mesylate]: the “effect of inhibitor on fluorescence of EGTP with TMPRSS2 incubation” value at TMPRSS2 [1] is reported as “significantly reduced fluorescence of EGTP”. Further, the “effect of inhibitor on yellow fluorescence of EGTP” value at TMPRSS2 [2] (Camostat before adding EGTP) is “gradually decreased”.
In the case of `C#CC[C@H](NC(=O)CNC(=O)CNC(=O)[C@H](CCCNC(=N)N)NC(=O)[C@H](C)NC(=O)[C@H](CCC(N)=O)NC(=O)CNC(=O)CNC(=O)CNC(=O)[C@H](CCC(=O)O)NC(=O)[C@H](CCC(=O)O)NC(=O)[C@H](CCC(=O)O)NC(=O)[C@H](CCC(=O)O)NC(=O)[C@H](CCC(=O)O)NC(=O)[C@H](CCC(=O)O)NC(=O)[C@H](CCC(=O)O)NC(=O)[C@H](CCC(=O)O)NC(=O)[C@@H](N)CCC(=O)O)C(N)=O` [EGT, EEEEEEEEEGGGQAR (SEQ ID NO:4)], in data set [3] (1 μM to 20 μM, 48 h), the toxicity to cells result was “negligible toxicity”.
In the case of `CC(C)C[C@H](NC(=O)OCc1ccccc1)C(=O)N[C@@H](C[C@@H]1CCNC1=O)C(O)S(=O)(=O)[O-].[Na+]` (some centres unmarked) [GC376], the “red and yellow fluorescence with inhibitor” value in data set [4] (10 μM PSGMR and 2 μM, 6 μM, and 12 μM GC376) is given as “markedly decreased”. For the same compound, in [4] (setting [9]), the “average red fluorescence intensity, decrease” value fell in the range of 32.6 to 11.6 times and the “average yellow fluorescence intensity, decrease” value is 5.8 to 3.6 times. At TMPRSS2 [2], the “effect of inhibitor on fluorescence intensity of EGTP” value is “no significant effect on the fluorescence intensity of EGTP”.
`Cc1ccc(N)cc1C(=O)N[C@H](C)c1cccc2ccccc12` [GRL0617]: the “effect of inhibitor on fluorescence intensity of EGTP” value on TMPRSS2 [2] is listed as “no significant effect on the fluorescence intensity of EGTP”.
As to (Pra)GSAVLQ/SGFRKMAGRRRRRR [PMR], the “killing / inhibition of infected cells” value in [5] is “can also inhibit infected cells”. Moreover, the “yellow and red fluorescence of infected cells” value in [5] (10 μM probe) is recorded as “weaker than that of PSGMR”. For the same compound, the “red and yellow fluorescence and cell morphology of infected cells” value in [5] (PSGMR versus PMR) was “less than the infected cells with PSGMR”. Further, the “cleavage by Mpro” value in [6] is “can be cleaved by M^pro”; in [6] (pH 8) it was “can be cleaved by Mpro between Q and S”. Further, the “aggregation and fluorescence on incubation with Mpro (time-dependent spectra)” value in the data set with Recombinant Mpro is “can easily aggregate with strong fluorescence”. In addition, in the data set with Recombinant Mpro, the “fluorescence intensity after incubation with Mpro” value is “weaker than that of PSGMR”.
For the compound (Pra)KLVFFGSAVLQ/SGFRKMARRRRRR [PSMR], in data set [6] (pH 8), the “cleavage by Mpro” value is reported as “not”. Further, at Recombinant Mpro, the “aggregation and fluorescence on incubation with Mpro (time-dependent spectra)” value is on record as “cannot aggregate with weak fluorescence”; the “fluorescence intensity after incubation with Mpro” value was “decreased upon incubation with Mpro”.
Turning to AVLQFFVLKC [AVLQFFVLKC (SEQ ID NO:12)], the “cleavage by Mpro” value in data set [6] is “not cleaved by Mpro”.
On the same count and under the same terms, to CGAVLQDDD [CGAVLQDDD (SEQ ID NO: 11)] belongs “not cleaved by Mpro”.
On to “TGP: control probe without polyglutamic acid: peptide QARGG (SEQ ID NO:2) linked by Propargylglycine (Pra) to the dye PyTPE (also: linked by Pra to dye PyTPE, end not given here)”, for which the “cleavage by TMPRSS2” value in the data set with TMPRSS2 [7] was “can be cleaved by TMPRSS2”. Moreover, in the data set with A549 cells, the “yellow fluorescence in A549 cells” value was “strong yellow fluorescence”. Besides, the “yellow fluorescence in HeLa cells” value in the data set with HeLa cells (10 μM probe, 1 h) was “strong yellow fluorescence”. For the same compound, the “yellow fluorescence in MCF-7-GFP cells” value in the data set on MCF-7-GFP cells is given as “strong yellow fluorescence”. Besides, the “fluorescence intensity after incubation with TMPRSS2 (comparison of probes)” value in the data set with TMPRSS2 [8] was “stronger than that of EGTP and EGEP”.
With TetraPhenylEthene Pyridinium [PyTPE], in [3], the “concentration that can cause significant cytotoxicity” value is over 5 µM and the “cytotoxicity (metabolic activity)” value is given as “obviously cytotoxic”. Moreover, the “overlap of yellow fluorescence with Mito tracker green (MTG)” value in the data set with HeLa cells is recorded as “overlapped well with the green fluorescence of MTG”. Moreover, the “yellow fluorescence in TMPRSS2-Vero cells” value with TMPRSS2-Vero cells is reported as “enhanced with increasing concentrations”. In the data set on HEK 293T cells, the “cytotoxicity (metabolic activity)” value was “obviously cytotoxic” and the “high concentration that caused significant cytotoxicity” value was 20 µM. Also, the “yellow fluorescence in Vero cells” value with Vero cells is “enhanced with increasing concentrations”.
